Results taken from patent publication US20120219636A1, “ENHANCED REMOVAL OF VIRUSES FROM FRESH PRODUCE” (THE OHIO STATE UNIVERSITY, priority 2011, published 2012).
Where two headings read alike, the source gives them in different places.

Columns and labels:
[1] = system: MNV-1; experiment: Sanitization wash of MNV-1 inoculated fresh produce, viral survivors by plaque assay; set-up: species or system murine norovirus; conditions: for virus reduction: 2 min wash
[2] = system: MNV-1; assay type: cell-based, murine norovirus
[3] = system: VSV; assay type: cell-based, vesicular stomatitis virus (VSV) Indian strain
[4] = system: MNV-1; experiment: Transmission electron microscopy of purified MNV-1 after surfactant treatment; set-up: species or system murine norovirus
[5] = system: VSV; set-up: species or system vesicular stomatitis virus (VSV) Indian strain; conditions: 10,000 ppm; 37° C.; 72 hours
[6] = system: foodborne viruses; conditions: cited from earlier work
[7] = 200 ppm surfactant, 37° C., 72 hours

For `CCCCCCCCCCCCOS(=O)(=O)[O-].[Na+]` [SDS, sodium dodecyl sulfate], the “enhancement of efficiency of virus reduction over traditional sanitizers (chlorine solution alone)” value ([1]; fresh produce) was 100 fold, the virus reduction ([1]; lettuce, 50 ppm surfactant alone) was 2.26 logs and the virus reduction ([1]; raspberries, 50 ppm surfactant alone) was 2.63 logs. The virus reduction ([1]; strawberries, 50 ppm surfactant alone, room temperature) was 3.14 logs, the virus reduction ([1]; strawberries, 100 ppm SDS alone) was 3.41 logs and the virus reduction ([1]; strawberries, 200 ppm SDS alone) was 3.12 logs. The virus reduction ([1]; strawberries, 1,000 ppm SDS alone) was 3.51 logs, the “virus inactivation confirmed by plaque assay” value [2] was “completely inactivated” and the “reduction in MNV-1 titer” value ([2]; 1,000 ppm surfactant, 37° C., 72 hours) was “highest reduction in MNV-1 titer”. For the same molecule, the virus reduction ([2]; 10,000 ppm surfactant, 37° C., 72 hours) was “almost completely inactivated”, the virus reduction [3, 7] was 7.5 logs and the virus reduction ([3]; 200 ppm, 37° C., 4 hours) was 5 logs. For the same molecule, the “virus inactivation confirmed by plaque assay” value ([3]; purified VSV, 10,000 ppm, 37° C., 72 hours) was “completely inactivated”, the “damage to MNV-1 virus particles (electron microscopy)” value [4] was “outer capsid of the MNV-1 was severely damaged and aggregated” and the “damage to VSV virus particles (electron microscopy)” value [5] was “viral envelope was damaged and the shape of VSV was severely distorted”.

In the case of `CC(=O)OO` [peracetic acid], the “additional reduction over tap water washing” value [6] is listed as 0.77 logs.

In the case of `OCl` [sodium hypochlorite], the “additional virus reduction over tap water washing” value [6] is listed as 0.48 logs and the virus reduction [6] is listed as “less than 1 log”.

For NP40, the “virus reduction compared with tap water or chlorine solution” value ([1]; four types of fresh produce, 50 ppm surfactant alone) was “increased virus reduction than did tap water or chlorine solution” and the virus reduction [3] was 10. logs.

In the case of Triton X-100, the “additional virus reduction than that of the chlorine solution” value [1] is reported as roughly 1 log and the virus reduction [3, 7] is reported as 6.7 logs.

With Tween 20 the virus reduction [3, 7] was 2.7 logs.
